From PubChem BioAssay (NCI)
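Abbreviation: GI50, concentration required for 50% inhibition of growth. TGI is the concentration that stops growth completely.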

Experiments:
Assay in all cases: growth of human tumour cells (NCI), 384-well format
DU-145 prostate = tested on: DU-145 prostate
HS 578T breast = tested on: HS 578T breast
MDA-MB-435 melanoma = tested on: MDA-MB-435 melanoma
HCT-15 colon = tested on: HCT-15 colon
OVCAR-8 ovarian = tested on: OVCAR-8 ovarian
SK-MEL-2 melanoma = tested on: SK-MEL-2 melanoma
SF-295 CNS = tested on: SF-295 CNS
NCI-H23 lung = tested on: NCI-H23 lung
SNB-75 CNS = tested on: SNB-75 CNS
CAKI-1 renal = tested on: CAKI-1 renal
KM12 colon = tested on: KM12 colon
HL-60(TB) leukemia = tested on: HL-60(TB) leukemia
NCI-H226 lung = tested on: NCI-H226 lung
RPMI-8226 leukemia = tested on: RPMI-8226 leukemia
HOP-62 NSCLC = tested on: HOP-62 NSCLC
RXF 393 renal = tested on: RXF 393 renal
MOLT-4 leukemia = tested on: MOLT-4 leukemia
MDA-MB-468 breast = tested on: MDA-MB-468 breast
MCF7 breast = tested on: MCF7 breast
TK-10 renal = tested on: TK-10 renal
A549 NSCLC = tested on: A549 NSCLC
SF-268 CNS = tested on: SF-268 CNS
SN12C renal = tested on: SN12C renal
UACC-62 melanoma = tested on: UACC-62 melanoma
786-0 renal = tested on: 786-0 renal
UO-31 renal = tested on: UO-31 renal
NCI/ADR-RES ovarian = tested on: NCI/ADR-RES ovarian
SK-MEL-28 melanoma = tested on: SK-MEL-28 melanoma
HOP-92 NSCLC = tested on: HOP-92 NSCLC
CCRF-CEM leukemia = tested on: CCRF-CEM leukemia
M14 melanoma = tested on: M14 melanoma
HCT-116 colon = tested on: HCT-116 colon
HT29 colon = tested on: HT29 colon
MALME-3M melanoma = tested on: MALME-3M melanoma
LOX IMVI melanoma = tested on: LOX IMVI melanoma
U251 glioblastoma = tested on: U251 glioblastoma
NCI-H322M lung = tested on: NCI-H322M lung
OVCAR-5 ovarian = tested on: OVCAR-5 ovarian
SW-620 colon = tested on: SW-620 colon
SNB-19 CNS = tested on: SNB-19 CNS
OVCAR-4 ovarian = tested on: OVCAR-4 ovarian
UACC-257 melanoma = tested on: UACC-257 melanoma
BT-549 breast = tested on: BT-549 breast
EKVX NSCLC = tested on: EKVX NSCLC
OVCAR-3 ovarian = tested on: OVCAR-3 ovarian
SF-539 CNS = tested on: SF-539 CNS
K-562 leukemia = tested on: K-562 leukemia
NCI-H522 lung = tested on: NCI-H522 lung
T-47D breast = tested on: T-47D breast
A498 renal = tested on: A498 renal
IGROV1 ovarian = tested on: IGROV1 ovarian
ACHN renal = tested on: ACHN renal
MDA-MB-231 breast = tested on: MDA-MB-231 breast
PC-3 prostate = tested on: PC-3 prostate
SK-OV-3 ovarian = tested on: SK-OV-3 ovarian

Compound: Clc1ccc(C(c2ccccc2Cl)C(Cl)Cl)cc1 (stereo not given)
- GI50 (DU-145 prostate): 16.8 µM
- TGI (DU-145 prostate): 30.7 µM
- GI50 (HS 578T breast): 17 µM
- TGI (HS 578T breast): 30.8 µM
- GI50 (MDA-MB-435 melanoma): 16.8 µM
- TGI (MDA-MB-435 melanoma): 30.7 µM
- GI50 (HCT-15 colon): 13.9 µM
- TGI (HCT-15 colon): 27.3 µM
- GI50 (OVCAR-8 ovarian): 17 µM
- TGI (OVCAR-8 ovarian): 30.9 µM
- GI50 (SK-MEL-2 melanoma): 19.1 µM
- TGI (SK-MEL-2 melanoma): 33.2 µM
- GI50 (SF-295 CNS): 16.2 µM
- TGI (SF-295 CNS): 29.8 µM
- GI50 (NCI-H23 lung): 17 µM
- TGI (NCI-H23 lung): 30.9 µM
- GI50 (SNB-75 CNS): 17.8 µM
- TGI (SNB-75 CNS): 32.3 µM
- GI50 (CAKI-1 renal): 12.9 µM
- TGI (CAKI-1 renal): 25.7 µM
- GI50 (KM12 colon): 16.3 µM
- TGI (KM12 colon): 30.1 µM
- GI50 (HL-60(TB) leukemia): 10.5 µM
- TGI (HL-60(TB) leukemia): 22.4 µM
- GI50 (NCI-H226 lung): 16.2 µM
- TGI (NCI-H226 lung): 29.9 µM
- GI50 (RPMI-8226 leukemia): 14 µM
- TGI (RPMI-8226 leukemia): 27 µM
- GI50 (HOP-62 NSCLC): 19.5 µM
- TGI (HOP-62 NSCLC): 33.7 µM
- GI50 (RXF 393 renal): 13.2 µM
- TGI (RXF 393 renal): 26.1 µM
- GI50 (MOLT-4 leukemia): 5.16 µM
- TGI (MOLT-4 leukemia): 17.6 µM
- GI50 (MDA-MB-468 breast): 10.7 µM
- TGI (MDA-MB-468 breast): 22.7 µM
- GI50 (MCF7 breast): 17.6 µM
- TGI (MCF7 breast): 31.7 µM
- GI50 (TK-10 renal): 16.7 µM
- TGI (TK-10 renal): 30.6 µM
- GI50 (A549 NSCLC): 16.9 µM
- TGI (A549 NSCLC): 31 µM
- GI50 (SF-268 CNS): 16.7 µM
- TGI (SF-268 CNS): 30.5 µM
- GI50 (SN12C renal): 15.7 µM
- TGI (SN12C renal): 29.3 µM
- GI50 (UACC-62 melanoma): 17 µM
- TGI (UACC-62 melanoma): 30.8 µM
- GI50 ([…]-0 renal): 16.2 µM
- TGI (786-0 renal): 29.9 µM
- GI50 (UO-31 renal): 16.6 µM
- TGI (UO-31 renal): 30.5 µM
- GI50 (NCI/ADR-RES ovarian): 17.4 µM
- TGI (NCI/ADR-RES ovarian): 31.4 µM
- GI50 (SK-MEL-28 melanoma): 17.6 µM
- TGI (SK-MEL-28 melanoma): 31.5 µM
- GI50 (HOP-92 NSCLC): 15.1 µM
- TGI (HOP-92 NSCLC): 28.5 µM
- GI50 (CCRF-CEM leukemia): 16.2 µM
- TGI (CCRF-CEM leukemia): 29.8 µM
- GI50 (M14 melanoma): 16.6 µM
- TGI (M14 melanoma): 30.4 µM
- GI50 (HCT-116 colon): 14.5 µM
- TGI (HCT-116 colon): 28.2 µM
- GI50 (HT29 colon): 15.1 µM
- TGI (HT29 colon): 28.9 µM
- GI50 (MALME-3M melanoma): 14.7 µM
- TGI (MALME-3M melanoma): 27.9 µM
- GI50 (LOX IMVI melanoma): 16.4 µM
- TGI (LOX IMVI melanoma): 30.1 µM
- GI50 (U251 glioblastoma): 16.6 µM
- TGI (U251 glioblastoma): 30.5 µM
- GI50 (NCI-H322M lung): 18.8 µM
- TGI (NCI-H322M lung): 33.2 µM
- GI50 (OVCAR-5 ovarian): 16.8 µM
- TGI (OVCAR-5 ovarian): 30.7 µM
- GI50 (SW-620 colon): 15.1 µM
- TGI (SW-620 colon): 28.7 µM
- GI50 (SNB-19 CNS): 17.2 µM
- TGI (SNB-19 CNS): 31.2 µM
- GI50 (OVCAR-4 ovarian): 15.7 µM
- TGI (OVCAR-4 ovarian): 29.3 µM
- GI50 (UACC-257 melanoma): 17.6 µM
- TGI (UACC-257 melanoma): 31.5 µM
- GI50 (BT-549 breast): 18.5 µM
- TGI (BT-549 breast): 32.6 µM
- GI50 (EKVX NSCLC): 17.3 µM
- TGI (EKVX NSCLC): 31.2 µM
- GI50 (OVCAR-3 ovarian): 15.5 µM
- TGI (OVCAR-3 ovarian): 29 µM
- GI50 (SF-539 CNS): 17.3 µM
- TGI (SF-539 CNS): 31.2 µM
- GI50 (K-562 leukemia): 17.9 µM
- TGI (K-562 leukemia): 32.1 µM
- GI50 (NCI-H522 lung): 12.9 µM
- TGI (NCI-H522 lung): 25.7 µM
- GI50 (T-47D breast): 15.5 µM
- TGI (T-47D breast): 29.1 µM
- GI50 (A498 renal): 17.4 µM
- TGI (A498 renal): 31.3 µM
- GI50 (IGROV1 ovarian): 15 µM
- TGI (IGROV1 ovarian): 28.4 µM
- GI50 (ACHN renal): 16 µM
- TGI (ACHN renal): 29.6 µM
- GI50 (MDA-MB-231 breast): 16.4 µM
- TGI (MDA-MB-231 breast): 30.1 µM
- GI50 (PC-3 prostate): 14.3 µM
- TGI (PC-3 prostate): 27.6 µM
- GI50 (SK-OV-3 ovarian): 16.1 µM
- TGI (SK-OV-3 ovarian): 29.8 µM
